Experimental data reported in patent EP4700018A1, “NAV1.8 INHIBITORS, PREPARATION METHOD THEREFOR AND USE THEREOF” (Shanghai Institute of Materia Medica, Chinese Academy of …, priority 2023, dated 2024).
Blank lines part the entries; values can stand above or below the compound they belong to.

Experiments:
[1] = biological target: human Nav1.8 sodium channel (Homo sapiens, UniProt Q9Y5Y9); experiment: Blocking activity on sodium channel 1.8 (Nav1.8), whole-cell manual patch clamp; type: cell-based; settings: for inhibition at 0.001 µM: read-out: inhibition Percent @1 nM, 1 nM compound; for inhibition Percent @1 nM: 1 nM compound, 0.001 µM; for inhibition at 0.03 µM: read-out: inhibition Percent @30 nM, 30 nM compound; for inhibition at 0.01 µM: read-out: inhibition Percent @10 nM, 10 nM compound
[2] = In vivo pharmacokinetics in rats, single intravenous injection or oral gavage; settings: male, SD, plasma, Rat; for Vd: read-out: Vss
Protocol: The in vivo pharmacokinetics in rats were evaluated via a single intravenous injection or oral gavage administration in this test example. • 1. Test Methods and Conditions: Male SD rats were fasted overnight and administered a single intravenous dose of 2 mg/kg or 1 mg/kg of the test compound (solvent for Intravenous administration was 5% DMSO/10% Solutol® HS 15/10% EtOH/75% saline, with a dosing volume of 5 mL/kg) and an oral gavage dose of 10 mg/kg or 5 mg/kg of the test compound (solvent for administration was 0.5% CMC-Na, with a dosing volume of 10 mL/kg), respectively. • 2. Sampling Information: Blood samples (0.2 mL) were collected from the retroorbital venous plexus at the designated time points: 0.25, 0.5, 1.0, 2.0, 3.0, 4.0, 6.0, 8.0, and 24 hours before and after dosing (a 5 min sampling point was added for the intravenous administration group), respectively. The samples were placed in EDTA-K2 tubes and centrifuged at 11,000 rpm for 5 minutes. Plasma was separated and frozen at -20°C. • 3. Assay Information: LC/MS/MS was used to determine the concentration of the parent drug in rat/mouse plasma following intravenous and oral gavage administration of the test compound. Pharmacokinetic parameters in rat/mouse plasma were calculated for both administration routes, and the bioavailability of each compound in rats was also calculated. Table 5: Intravenous Pharmacokinetic Information of Representative Compounds

[3] = intravenous, single dose 2 mg/kg or 1 mg/kg (figure not given)

Chain of human Nav1.8 sodium channel (Q9Y5Y9 whole entry): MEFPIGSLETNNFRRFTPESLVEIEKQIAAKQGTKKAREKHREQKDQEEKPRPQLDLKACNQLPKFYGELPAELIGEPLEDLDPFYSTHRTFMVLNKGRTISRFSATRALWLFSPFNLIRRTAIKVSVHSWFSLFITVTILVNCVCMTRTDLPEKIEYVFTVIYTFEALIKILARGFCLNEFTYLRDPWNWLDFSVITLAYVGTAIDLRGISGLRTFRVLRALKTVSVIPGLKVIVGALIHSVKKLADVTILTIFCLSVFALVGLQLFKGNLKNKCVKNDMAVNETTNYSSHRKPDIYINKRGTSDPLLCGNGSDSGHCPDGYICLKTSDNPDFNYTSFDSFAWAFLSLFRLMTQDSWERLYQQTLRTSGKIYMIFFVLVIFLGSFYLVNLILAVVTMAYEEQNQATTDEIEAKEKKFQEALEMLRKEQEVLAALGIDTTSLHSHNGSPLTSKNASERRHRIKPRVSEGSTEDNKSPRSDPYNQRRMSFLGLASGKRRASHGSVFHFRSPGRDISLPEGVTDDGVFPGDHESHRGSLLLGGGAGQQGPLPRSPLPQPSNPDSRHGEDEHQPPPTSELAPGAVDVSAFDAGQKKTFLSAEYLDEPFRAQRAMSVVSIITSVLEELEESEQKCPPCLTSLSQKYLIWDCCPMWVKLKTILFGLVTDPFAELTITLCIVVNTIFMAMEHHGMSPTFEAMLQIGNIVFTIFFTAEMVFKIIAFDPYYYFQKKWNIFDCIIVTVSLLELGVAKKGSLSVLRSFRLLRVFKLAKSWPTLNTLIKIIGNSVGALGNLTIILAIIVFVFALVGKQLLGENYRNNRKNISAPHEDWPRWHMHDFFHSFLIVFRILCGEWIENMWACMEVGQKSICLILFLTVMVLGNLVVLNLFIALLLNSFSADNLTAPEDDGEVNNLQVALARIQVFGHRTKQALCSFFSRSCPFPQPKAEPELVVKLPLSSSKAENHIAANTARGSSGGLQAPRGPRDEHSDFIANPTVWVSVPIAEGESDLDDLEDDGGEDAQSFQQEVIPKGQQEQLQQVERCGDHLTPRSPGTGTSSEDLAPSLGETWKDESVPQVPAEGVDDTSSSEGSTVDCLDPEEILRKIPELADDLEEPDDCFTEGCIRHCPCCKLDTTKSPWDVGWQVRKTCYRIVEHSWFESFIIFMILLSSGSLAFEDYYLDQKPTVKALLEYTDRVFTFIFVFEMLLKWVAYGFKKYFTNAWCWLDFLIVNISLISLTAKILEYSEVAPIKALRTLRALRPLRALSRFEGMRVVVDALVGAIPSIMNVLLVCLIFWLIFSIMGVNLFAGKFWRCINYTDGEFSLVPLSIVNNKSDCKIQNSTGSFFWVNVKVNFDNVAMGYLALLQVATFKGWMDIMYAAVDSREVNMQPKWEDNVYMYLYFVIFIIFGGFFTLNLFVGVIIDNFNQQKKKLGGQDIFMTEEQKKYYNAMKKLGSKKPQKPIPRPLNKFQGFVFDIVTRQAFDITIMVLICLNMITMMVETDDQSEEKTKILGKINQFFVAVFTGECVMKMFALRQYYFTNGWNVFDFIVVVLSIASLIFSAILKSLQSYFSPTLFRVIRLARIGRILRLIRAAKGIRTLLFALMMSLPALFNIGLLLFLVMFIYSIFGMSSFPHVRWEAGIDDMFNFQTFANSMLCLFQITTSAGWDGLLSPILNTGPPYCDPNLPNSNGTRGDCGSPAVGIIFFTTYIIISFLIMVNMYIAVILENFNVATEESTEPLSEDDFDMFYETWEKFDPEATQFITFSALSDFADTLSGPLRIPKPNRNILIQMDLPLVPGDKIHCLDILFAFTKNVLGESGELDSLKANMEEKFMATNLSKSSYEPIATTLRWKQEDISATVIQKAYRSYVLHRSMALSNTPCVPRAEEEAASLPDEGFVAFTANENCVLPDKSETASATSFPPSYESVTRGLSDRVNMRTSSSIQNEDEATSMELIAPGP

Structure (SMILES): CC1CN(c2nc(C(F)(F)F)c(Cl)cc2C(=O)Nc2ccc(F)c(C(N)=NO)c2)CCC1(F)F (single isomer, unassigned) [Compound I-40-P1, 5-chloro-2-(4,4-difluoro-3-methylpiperidin-1-yl)-N-(4-fluoro-3-(N'-hydroxyamidino)phenyl)-6-(trifluoromethyl)nicotinamide]
- inhibition at 0.001 µM [1]: 59%

Structure (SMILES): CC1CN(c2nc(C(F)(F)F)c(Cl)cc2C(=O)Nc2ccc(F)c(C(N)=NO)c2)CCC1(F)F (single isomer, unassigned) [Compound I-40-P2, 5-chloro-2-(4,4-difluoro-3-methylpiperidin-1-yl)-N-(4-fluoro-3-(N'-hydroxyamidino)phenyl)-6-(trifluoromethyl)nicotinamide]
- inhibition Percent @1 nM [1]: 63%

Structure (SMILES): Cc1nc(N2CCC(F)(F)C(C)C2)c(C(=O)Nc2ccc(F)c(C(N)=NO)c2)cc1Cl (single isomer, unassigned) [Compound I-41-P1, 5-chloro-2-(4,4-difluoro-3-methylpiperidin-1-yl)-N-(4-fluoro-3-(N'-hydroxyamidino)phenyl)-6-(methyl)nicotinamide]
- inhibition at 0.001 µM [1]: 38%

Structure (SMILES): Cc1nc(N2CCC(F)(F)C(C)C2)c(C(=O)Nc2ccc(F)c(C(N)=NO)c2)cc1Cl (single isomer, unassigned) [Compound I-41-P2, 5-chloro-2-(4,4-difluoro-3-methylpiperidin-1-yl)-N-(4-fluoro-3-(N'-hydroxyamidino)phenyl)-6-(methyl)nicotinamide]
- inhibition Percent @1 nM [1]: 35%

Structure (SMILES): Cc1nc(N2CCCC(F)(F)CC2)c(C(=O)Nc2ccc(F)c(C(=O)O)c2)cc1Cl [Compound I7-b, 5-(5-chloro-2-(4,4-difluoroazepan-1-yl)-6-methylnicotinamido)-2-fluorobenzoic acid]
- inhibition at 0.03 µM [1]: 33%

Structure (SMILES): Cc1nc(N2CCCC(F)(F)CC2)c(C(=O)Nc2ccc(F)c(C(=N)N)c2)cc1Cl [Compound I-2, N-(3-amidino-4-fluorophenyl)-5-chloro-2-(4,4-difluoroazepan-1-yl)-6-methylnicotinamide]
- inhibition at 0.001 µM [1]: 79%

- AUC(0-t) [2, 3]: 0.567 µg·h/mL
- clearance [2, 3]: 1.78 L/h/kg
- half-life [2, 3]: 0.325 h
- Vd [2, 3]: 0.442 L/kg
- AUC(0-t) ([2]; oral gavage, 5mg/kg): 1.77 µg·h/mL
- Cmax ([2]; oral gavage, 5mg/kg): 0.381 µg/mL
- Tmax ([2]; oral gavage, 5mg/kg): 6 h
- half-life ([2]; oral gavage, 5mg/kg): 2.08 h
- bioavailability ([2]; oral gavage, 5mg/kg): 62.4%
Structure (SMILES): Cc1nc(N2CCCC(F)(F)CC2)c(C(=O)Nc2ccc(F)c(C(N)=NC#N)c2)cc1Cl [Compound I-3, 5-chloro-N-(3-(N'-cyanoamidino)-4-fluorophenyl)-2-(4,4-difluoroazepan-1-yl)-6-meth ylnicotinamide]

Structure (SMILES): Cc1nc(N2CCCC(F)(F)CC2)c(C(=O)Nc2ccc(Cl)c(C(N)=NO)c2)cc1Cl [Compound I-5, 5-chloro-2-(4,4-difluoroazepan-1-yl)-N-(4-chloro-3-(N'-hydroxyamidino)phenyl)-6-me thylnicotinamide]
- inhibition at 0.001 µM [1]: 82%

Structure (SMILES): Cc1nc(N2CCCC(F)(F)CC2)c(C(=O)Nc2ccc(Cl)c(C(=N)N)c2)cc1Cl [Compound I-6, N-(3-amidino-4-chlorophenyl)-5-chloro-2-(4,4-difluoroazepan-1-yl)-6-methylnicotinamide]
- inhibition at 0.001 µM [1]: 65%

Structure (SMILES): Cc1ccc(NC(=O)c2cc(Cl)c(C)nc2N2CCCC(F)(F)CC2)cc1C(N)=NO [Compound I-7, 5-chloro-2-(4,4-difluoroazepan-1-yl)-N-(3-(N'-hydroxyamidino)-4-methylphenyl)-6-me thylnicotinamide]
- inhibition at 0.01 µM [1]: 83%

Structure (SMILES): Cc1ccc(NC(=O)c2cc(Cl)c(C)nc2N2CCCC(F)(F)CC2)cc1C(=N)N [Compound I-8, N-(3-amidino-4-methylphenyl)-5-chloro-2-(4,4-difluoroazepan-1-yl)-6-methylnicotinamide]
- inhibition at 0.001 µM [1]: 51%

Structure (SMILES): COc1ccc(NC(=O)c2cc(Cl)c(C)nc2N2CCCC(F)(F)CC2)cc1C(=N)N [Compound I-10, N-(3-amidino-4-methoxyphenyl)-5-chloro-2-(4,4-difluoroazepan-1-yl)-6-methylnicoti namide]
- inhibition at 0.001 µM [1]: 32%

Structure (SMILES): Cc1nc(N2CCCC(F)(F)CC2)c(C(=O)Nc2cccc(C(N)=NO)c2)cc1Cl [Compound I-11, 5-chloro-2-(4,4-difluoroazepan-1-yl)-N-(3-(N'-hydroxyamidino)phenyl)-6-methylnicoti namide]
- inhibition at 0.001 µM [1]: 90%

Structure (SMILES): Cc1nc(N2CCCC(F)(F)CC2)c(C(=O)Nc2cccc(C(=N)N)c2)cc1Cl [Compound I-12, N-(3-amidinophenyl)-5-chloro-2-(4,4-difluoroazepan-1-yl)-6-methylnicotinamide]
- IC50 ([1]; Nav1.8 channel current, HEK293 cells stably expressing human Nav1.8, clamped at -60 mV, mean ± SEM, read-out: IC50): 0.26 ± 0.06 nM
- inhibition at 0.001 µM [1]: 73%

Structure (SMILES): Cc1nc(N2CCCC(F)(F)CC2)c(C(=O)Nc2ccc(C(N)=NO)cc2)cc1Cl [Compound I-13, 5-chloro-2-(4,4-difluoroazepan-1-yl)-N-(4-(N'-hydroxyamidino)phenyl)-6-methylnicoti namide]
- inhibition at 0.001 µM [1]: 85%

Structure (SMILES): Cc1nc(N2CCCC(F)(F)CC2)c(C(=O)Nc2ccnc(C(N)=NO)c2)cc1Cl [Compound I-15, 5-chloro-2-(4,4-difluoroazepan-1-yl)-N-(2-(N'-hydroxyamidinoimino)pyridin-4-yl)-6-m ethylnicotinamide]
- inhibition at 0.001 µM [1]: 66%

Structure (SMILES): Cc1nc(N2CCCC(F)(F)CC2)c(C(=O)Nc2ccc(F)c(C(=O)NC(=N)N)c2)cc1Cl [Compound I-17, N-(3-(amidinocarbamoyl)-4-fluorophenyl)-5-chloro-2-(4,4-difluoroazepan-1-yl)-6-met hylnicotinamide]
- inhibition at 0.03 µM [1]: 99%

Structure (SMILES): Cc1nc(N2CCCC(F)(F)CC2)c(C(=O)Nc2cccc(C(=O)NC(=N)N)c2)cc1Cl [Compound I-18, N-(3-(amidinocarbamoyl)phenyl)-5-chloro-2-(4,4-difluoroazepan-1-yl)-6-methylnicoti namide]
- inhibition at 0.03 µM [1]: 90%

Structure (SMILES): Cc1nc(N2CCCC(F)(F)CC2)c(C(=O)Nc2ccc(F)c(NC(=N)N)c2)cc1Cl [Compound I-19, 5-chloro-2-(4,4-difluoroazepan-1-yl)-N-(4-fluoro-3-guanidinophenyl)-6-methylnicotin amide]
- inhibition at 0.001 µM [1]: 49%

Structure (SMILES): Cc1nc(N2CCCCCC2)c(C(=O)Nc2cccc(C(=N)N)c2)cc1Cl [Compound I-23, 2-(azepan-1-yl)-N-(3-amidinophenyl)-5-chloro-6-methylnicotinamide]
- inhibition at 0.03 µM [1]: 95%

Structure (SMILES): C#Cc1cc(C(=O)Nc2ccc(F)c(C(N)=NO)c2)c(N2CCCC(F)(F)CC2)nc1C [Compound I-26, 2-(4,4-difluoroazepan-1-yl)-5-ethynyl-N-(4-fluoro-3-(N'-hydroxyamidino)phenyl)-6-m ethylnicotinamide]
- inhibition at 0.01 µM [1]: 76%

Structure (SMILES): Cc1nc(N2CCCC(F)(F)CC2)c(C(=O)Nc2ccc(F)c(C(N)=NO)c2)cc1C(F)(F)F [Compound I-27, 2-(4,4-difluoroazepan-1-yl)-N-(4-fluoro-3-(N'-hydroxyamidino)phenyl)-6-methyl-5-(trifluoromethyl)nicotinamide]
- inhibition at 0.01 µM [1]: 83%

Structure (SMILES): Cc1ccc(C(=O)Nc2ccc(F)c(C(N)=NO)c2)c(N2CCCC(F)(F)CC2)n1 [Compound I-29, 2-(4,4-difluoroazepan-1-yl)-N-(4-fluoro-3-(N'-hydroxyamidino)phenyl)-6-methylnicoti namide]
- inhibition at 0.01 µM [1]: 57%

Structure (SMILES): O=C(Nc1ccc2c(c1)S(=O)(=O)NC2)c1c(N2CCCC(F)(F)CC2)ccc(C(F)(F)F)c1Cl [Compound I-31, 2-chloro-6-(4,4-difluoroazepan-1-yl)-N-(1,1-dioxo-2,3-dihydrobenzisothiazol-6-yl)-3-tr ifluoromethylbenzamide]
- inhibition at 0.001 µM [1]: 46%

Structure (SMILES): NC(=NO)c1cc(NC(=O)c2c(N3CCCC(F)(F)CC3)ccc(C(F)(F)F)c2Cl)ccc1F [Compound I-32, 2-chloro-6-(4,4-difluoroazepan-1-yl)-N-(4-fluoro-3-(N'-hydroxyamidino)phenyl)-3-(trifluoromethyl)benzamide]
- inhibition at 0.001 µM [1]: 50%

Structure (SMILES): N#CN=C(N)c1cc(NC(=O)c2cc(Cl)c(C(F)(F)F)nc2N2CCCC(F)(F)CC2)ccc1F [Compound I-37, 5-chloro-N-(3-(N'-cyanoamidino)-4-fluorophenyl)-2-(4,4-difluoroazepan-1-yl)-6-triflu oromethylnicotinamide]
- inhibition at 0.01 µM [1]: 62%

Structure (SMILES): NC(=NO)c1cc(NC(=O)c2cc(Cl)c(C(F)F)nc2N2CCCC(F)(F)CC2)ccc1F [Compound I-38, 5-chloro-2-(4,4-difluoroazepan-1-yl)-6-(difluoromethyl)-N-(4-fluoro-3-(N'-hydroxyamidino)phenyl)nicotinamide]
- inhibition at 0.001 µM [1]: 33%

- AUC(0-t) [2, 3]: 2.51 µg·h/mL
- clearance [2, 3]: 0.834 L/h/kg
- half-life [2, 3]: 1.08 h
- Vd [2, 3]: 1.09 L/kg
- AUC(0-t) ([2]; oral gavage, 10mg/kg): 3.81 µg·h/mL
- Cmax ([2]; oral gavage, 10mg/kg): 0.723 µg/mL
- Tmax ([2]; oral gavage, 10mg/kg): 2 h
- half-life ([2]; oral gavage, 10mg/kg): 2.88 h
- bioavailability ([2]; oral gavage, 10mg/kg): 30.4%
Structure (SMILES): Cc1cc(F)ccc1Oc1cc(C(F)(F)F)ccc1C(=O)Nc1cc[nH]c(=O)c1 [VX-150, reference compound]
